Results from ChEMBL document CHEMBL4316596, “Antimicrobial Peptides with High Proteolytic Resistance for Combating Gram-Negative Bacteria” (J Med Chem, 2019).
Converted amounts (≈) assume the structure as drawn. The source made the active and inactive calls. No cut-off for these calls is given here.

Assays:
Escherichia coli [1] = assay: Bactericidal activity against Escherichia coli ATCC 25922 incubated for 4 hrs followed by culture spread on agar plates and cultured overnight in presence of 0.125 mg/ml trypsin; type: functional; conditions: ATCC 25922, 4 h, read-out: MBC>99.9
Pseudomonas aeruginosa [2] = assay: Bactericidal activity against Pseudomonas aeruginosa ATCC 27853 incubated for 4 hrs followed by culture spread on agar plates and cultured overnight; type: functional; conditions: ATCC 27853, 4 h, read-out: MBC>99.9
Escherichia coli [3] = assay: Bactericidal activity against Escherichia coli ATCC 25922 incubated for 4 hrs followed by culture spread on agar plates and cultured overnight in presence of 2 mg/ml chymotrypsin; type: functional; conditions: ATCC 25922, 4 h, read-out: MBC>99.9
Pseudomonas aeruginosa [4] = assay: Bactericidal activity against Pseudomonas aeruginosa 25349 clinical isolates incubated for 4 hrs followed by culture spread on agar plates and cultured overnight; type: functional; conditions: Pseudomonas aeruginosa, 25349, 4 h; read-out: MBC>99.9
[5] = Selectivity ratio of HC10 for human RBC to geometric mean of the peptide MBC for bacteria
Escherichia coli [6] = assay: Bactericidal activity against Escherichia coli ATCC 25922 incubated for 4 hrs followed by culture spread on agar plates and cultured overnight in presence of 4 mg/ml chymotrypsin; type: functional; conditions: ATCC 25922, 4 h, read-out: MBC>99.9
[7] = Selectivity ratio of IC50 for HEK293T cells to geometric mean of the peptide MBC for bacteria
Escherichia coli [8] = assay: Bactericidal activity against Escherichia coli ATCC 25922 incubated for 4 hrs followed by culture spread on agar plates and cultured overnight in presence of KCl; type: functional; conditions: ATCC 25922, 4 h, read-out: MBC>99.9
Escherichia coli [9] = assay: Bactericidal activity against Escherichia coli ATCC 25922 incubated for 4 hrs followed by culture spread on agar plates and cultured overnight in presence of 4 mg/ml trypsin; type: functional; conditions: ATCC 25922, 4 h, read-out: MBC>99.9
Escherichia coli [10] = assay: Bactericidal activity against Escherichia coli 078 incubated for 4 hrs followed by culture spread on agar plates and cultured overnight; type: functional; conditions: Escherichia coli, 078, 4 h; read-out: MBC>99.9
Acinetobacter baumannii = assay: Bactericidal activity against Acinetobacter baumannii incubated for 4 hrs followed by culture spread on agar plates and cultured overnight; type: functional; conditions: read-out: MBC>99.9
HEK-293T = assay: Cytotoxicity against HEK293T cells assessed as cell death after 18 to 24 hrs by MTT assay; type: cell-based; conditions: Homo sapiens
Escherichia coli [11] = assay: Antimicrobial activity against Escherichia coli 078 after 24 hrs by NCCLS-protocol based assay; type: functional; conditions: Escherichia coli, 078, 24 h
Salmonella typhimurium = assay: Bactericidal activity against Salmonella typhimurium ATCC 14028 incubated for 4 hrs followed by culture spread on agar plates and cultured overnight; type: functional, Salmonella enterica subsp. enterica serovar Typhimurium; conditions: Salmonella enterica, ATCC 14028, 4 h; read-out: MBC>99.9
RAW264.7 = assay: Cytotoxicity against mouse RAW264.7 cells assessed as cell death after 18 to 24 hrs by MTT assay; type: cell-based
Escherichia coli [12] = assay: Antimicrobial activity against Escherichia coli ATCC 25922 after 24 hrs by NCCLS-protocol based assay; type: functional; conditions: ATCC 25922, 24 h
Pseudomonas aeruginosa [13] = assay: Bactericidal activity against Pseudomonas aeruginosa CICC 21625 clinical isolates incubated for 4 hrs followed by culture spread on agar plates and cultured overnight; type: functional; conditions: CICC 21625, 4 h, read-out: MBC>99.9
[14] = Bactericidal activity against Salmonella pullorum C7913 incubated for 4 hrs followed by culture spread on agar plates and cultured overnight; type: functional, Salmonella enterica subsp. enterica serovar Pullorum; conditions: Salmonella enterica, C7913, 4 h; read-out: MBC>99.9
Escherichia coli [15] = assay: Bactericidal activity against Escherichia coli ATCC 25922 incubated for 4 hrs followed by culture spread on agar plates and cultured overnight in presence of 0.5 mg/ml chymotrypsin; type: functional; conditions: ATCC 25922, 4 h, read-out: MBC>99.9
Escherichia coli [16] = assay: Bactericidal activity against Escherichia coli ATCC 25922 incubated for 4 hrs followed by culture spread on agar plates and cultured overnight in presence of 12.5% serum albumin; type: functional; conditions: ATCC 25922, 4 h, read-out: MBC>99.9
Escherichia coli [17] = assay: Antimicrobial activity against Escherichia coli UB1005 after 24 hrs by NCCLS-protocol based assay; type: functional; conditions: UB1005, 24 h
Pseudomonas aeruginosa [18] = assay: Bactericidal activity against Pseudomonas aeruginosa 26305 clinical isolates incubated for 4 hrs followed by culture spread on agar plates and cultured overnight; type: functional; conditions: Pseudomonas aeruginosa, 26305, 4 h; read-out: MBC>99.9
Escherichia coli [19] = assay: Bactericidal activity against Escherichia coli ATCC 25922 incubated for 4 hrs followed by culture spread on agar plates and cultured overnight in presence of 2 mg/ml trypsin; type: functional; conditions: ATCC 25922, 4 h, read-out: MBC>99.9
Escherichia coli [20] = assay: Bactericidal activity against Escherichia coli ATCC 25922 incubated for 4 hrs followed by culture spread on agar plates and cultured overnight in presence of NaCl; type: functional; conditions: ATCC 25922, 4 h, read-out: MBC>99.9
Escherichia coli [21] = assay: Bactericidal activity against Escherichia coli ATCC 25922 incubated for 4 hrs followed by culture spread on agar plates and cultured overnight in presence of 25% serum albumin; type: functional; conditions: ATCC 25922, 4 h, read-out: MBC>99.9
Pseudomonas aeruginosa [22] = assay: Antimicrobial activity against Pseudomonas aeruginosa ATCC 27853 after 24 hrs by NCCLS-protocol based assay; type: functional; conditions: ATCC 27853, 24 h
Escherichia coli [23] = assay: Bactericidal activity against Escherichia coli ATCC 25922 incubated for 4 hrs followed by culture spread on agar plates and cultured overnight in presence of 50% serum albumin; type: functional; conditions: ATCC 25922, 4 h, read-out: MBC>99.9
Pseudomonas aeruginosa [24] = assay: Antimicrobial activity against Pseudomonas aeruginosa PAO1 after 24 hrs by NCCLS-protocol based assay; type: functional; conditions: PAO1, 24 h
Escherichia coli [25] = assay: Bactericidal activity against Escherichia coli ATCC 25922 incubated for 4 hrs followed by culture spread on agar plates and cultured overnight in presence of 0.25 mg/ml trypsin; type: functional; conditions: ATCC 25922, 4 h, read-out: MBC>99.9
[26] = Antimicrobial activity against Salmonella pullorum C7913 after 24 hrs by NCCLS-protocol based assay; type: functional, Salmonella enterica subsp. enterica serovar Pullorum; conditions: Salmonella enterica, C7913, 24 h
Pseudomonas aeruginosa [27] = assay: Antimicrobial activity against Pseudomonas aeruginosa CICC 21625 clinical isolates after 24 hrs by NCCLS-protocol based assay; type: functional; conditions: CICC 21625, 24 h
Klebsiella pneumoniae = assay: Antimicrobial activity against Klebsiella pneumoniae after 24 hrs by NCCLS-protocol based assay; type: functional
Escherichia coli [28] = assay: Bactericidal activity against Escherichia coli ATCC 25922 incubated for 4 hrs followed by culture spread on agar plates and cultured overnight in presence of 1 mg/ml chymotrypsin; type: functional; conditions: ATCC 25922, 4 h, read-out: MBC>99.9
Escherichia coli [29] = assay: Bactericidal activity against Escherichia coli ATCC 25922 incubated for 4 hrs followed by culture spread on agar plates and cultured overnight in presence of ZnCl2; type: functional; conditions: ATCC 25922, 4 h, read-out: MBC>99.9
Escherichia coli [30] = assay: Antibacterial activity against Escherichia coli ATCC 25922 infected in ICR mouse assessed as mouse survival at 5 mg/kg, ip dosed at 0.5, 2, 4 and 8 hrs post-infection; type: functional; conditions: ATCC 25922, ip
Escherichia coli [31] = assay: Antibacterial activity against Escherichia coli ATCC 25922 infected in ICR mouse assessed as log reduction in bacterial cells in peritoneal cavity at 5 mg/kg, ip administered at 5 mg/kg, ip dosed at 0.5, 2, 4 and 8 hrs post-infection; type: functional
[32] = Cytotoxicity against IPECJ2 cells assessed as cell death after 18 to 24 hrs by MTT assay; type: cell-based; conditions: Sus scrofa, IPEC-J2
Pseudomonas aeruginosa [33] = assay: Antimicrobial activity against Pseudomonas aeruginosa ATCC 27853 at sub-MBC after 60 passages; type: functional, organism-based
Trypsin = Trypsin (Homo sapiens, UniProt P07477+P07478+P35030); assay: Stability of the compound assessed as trypsin (unknown origin)-mediated compound hydrolysis after 8 hrs by SDS-PAGE analysis; type: ADME, protein assay

Row | Molecule | MBC (Escherichia coli [1]) | MBC (Pseudomonas aeruginosa [2]) | MBC (Escherichia coli [3]) | MBC (Pseudomonas aeruginosa [4]) | Ratio [5] | MBC (Escherichia coli [6]) | Ratio [7] | MBC (Escherichia coli [8]) | MBC (Escherichia coli [9]) | MBC (Escherichia coli [10]) | MBC (Acinetobacter baumannii) | IC50 (HEK-293T) | MIC95 (Escherichia coli [11]) | MBC (Salmonella typhimurium) | IC50 (RAW264.7) | MIC95 (Escherichia coli [12]) | MBC (Pseudomonas aeruginosa [13]) | MBC [14] | MBC (Escherichia coli [15]) | MBC (Escherichia coli [16]) | further results
1 | CC[C@H](C)[C@H](NC(=O)CN)C(=O)NCC(=O)N[C@@H](C)C(=O)N[C@H](C(=O)N[C@@H](CC(C)C)C(=O)N[C@@H](CCCCN)C(=O)N[C@H](C(=O)N[C@@H](CC(C)C)C(=O)N[C@H](C(=O)N[C@H](C(=O)NCC(=O)N[C@@H](CC(C)C)C(=O)N1CCC[C@H]1C(=O)N[C@@H](C)C(=O)N[C@@H](CC(C)C)C(=O)N[C@H](C(=O)N[C@@H](CO)C(=O)N[C@@H](Cc1c[nH]c2ccccc12)C(=O)N[C@H](C(=O)N[C@@H](CCCCN)C(=O)N[C@@H](CCCNC(=N)N)C(=O)N[C@@H](CCCCN)C(=O)N[C@@H](CCCNC(=N)N)C(=O)N[C@@H](CCC(N)=O)C(=O)N[C@@H](CCC(N)=O)C(N)=O)[C@@H](C)CC)[C@@H](C)CC)[C@@H](C)O)[C@@H](C)O)C(C)C)C(C)C [MELITTIN] | 2 µM | 4 µM (≈ 11.4 µg/mL) | > 64 µM | 4 µM (≈ 11.4 µg/mL) | 0.92 | > 64 µM | 1.14 | 2 µM | > 64 µM | 1 µM (≈ 2.85 µg/mL) | 1 µM (≈ 2.85 µg/mL) | 2480 nM | 0.5 µM (≈ 1.42 µg/mL) | 2 µM (≈ 5.69 µg/mL) | 2090 nM | 2 µM (≈ 5.69 µg/mL) | 4 µM (≈ 11.4 µg/mL) | 4 µM (≈ 11.4 µg/mL) | > 64 µM | 32 µM | MIC95 (Escherichia coli [17]): 2 µM (≈ 5.69 µg/mL); MBC (Pseudomonas aeruginosa [18]): 2 µM (≈ 5.69 µg/mL); MBC (Escherichia coli [19]): > 64 µM; MBC (Escherichia coli [20]): 4 µM; MBC (Escherichia coli [21]): 64 µM; MIC95 (Pseudomonas aeruginosa [22]): 2 µM (≈ 5.69 µg/mL); MBC (Escherichia coli [23]): 64 µM; MIC95 (Pseudomonas aeruginosa [24]): 2 µM (≈ 5.69 µg/mL); MBC (Escherichia coli [25]): 2 µM; MIC95 [26]: 2 µM (≈ 5.69 µg/mL); MIC95 (Pseudomonas aeruginosa [27]): 4 µM (≈ 11.4 µg/mL); MIC95 (Klebsiella pneumoniae): 2 µM (≈ 5.69 µg/mL); MBC (Escherichia coli [28]): > 64 µM; MBC (Escherichia coli [29]): 2 µM
2 | H-LRPLLRPLLRPLLRPLLRPLLRPLLRPL-NH2 | 2 µM | 4 µM | > 64 µM | 8 µM | 24.7 | > 64 µM | 7.42 | 2 µM | 2 µM | 1 µM | 1 µM | 19200 nM | 1 µM | 2 µM | 2300 nM | 1 µM | 8 µM | 2 µM | 2 µM | 4 µM | survival at 5 mg/kg (Escherichia coli [30]): 37.5%; log(activity) (Escherichia coli [31]): 1; IC50 [32]: 10600 nM; Activity (Pseudomonas aeruginosa [33]): Active; MIC95 (Escherichia coli [17]): 2 µM; MBC (Pseudomonas aeruginosa [18]): 8 µM; MBC (Escherichia coli [19]): 2 µM; MBC (Escherichia coli [20]): 4 µM; MBC (Escherichia coli [21]): 8 µM; MIC95 (Pseudomonas aeruginosa [22]): 1 µM; MBC (Escherichia coli [23]): 16 µM; MIC95 (Pseudomonas aeruginosa [24]): 1 µM; MBC (Escherichia coli [25]): 2 µM; MIC95 [26]: 1 µM; MIC95 (Pseudomonas aeruginosa [27]): 8 µM; Stability (Trypsin): Stable; MIC95 (Klebsiella pneumoniae): 2 µM; MBC (Escherichia coli [28]): > 64 µM; MBC (Escherichia coli [29]): 2 µM
